Results from the supplement of paper PMC10307832.

Assays:
Test in all cases: relative viability (nuclei count vs DMSO), 5 days (fraction); higher = more cells survive
[1] = compound: CO[C@H]1C[C@@H]2CC[C@@H](C)[C@@](O)(O2)C(=O)C(=O)N2CCCC[C@H]2C(=O)O[C@H]([C@H](C)C[C@@H]2CC[C@@H](OCCO)[C@H](OC)C2)CC(=O)[C@H](C)/C=C(\C)[C@@H](O)[C@@H](OC)C(=O)[C@H](C)C[C@H](C)/C=C/C=C/C=C/1C [Everolimus]
Method in brief: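 Nuclei counted with MetaXpress define viability as the ratio of treated to vehicle wells, given as a median across plates. The lung cancer cell lines were in 1536-well plates, pinned with five √10-spaced library-drug doses and imaged at 4× after 5 days and Hoechst staining. Plates passed with control CV below 25% and at least one doubling.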

[2] = compound: CO[C@H]1C[C@@H]2CC[C@@H](C)[C@@](O)(O2)C(=O)C(=O)N2CCCC[C@H]2C(=O)O[C@H]([C@H](C)C[C@@H]2CC[C@@H](OCCO)[C@H](OC)C2)CC(=O)[C@H](C)/C=C(\C)[C@@H](O)[C@@H](OC)C(=O)[C@H](C)C[C@H](C)/C=C/C=C/C=C/1C [Everolimus] + N=C(N)NC(=N)NCCc1ccccc1 [Phenformin] (partner 250 µM)
Method in brief: (§1)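 Lung cancer cell lines were seeded in 1536-well plates and dosed by pin tool the next day, with either a single drug or a fixed anchor-drug dose combined with five library-drug doses (not always all listed) spaced in √10 steps. Five days later, one step fixed the cells and stained their nuclei (final 0.05% Triton X-100, 1% formaldehyde, 1 ug/ml Hoechst), and nuclei were counted on 4× images. Relative viability is the nuclei count in treated wells divided by the count in vehicle wells, and each value is the median of duplicate plates.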

[3] = compound: CO[C@H]1C[C@@H]2CC[C@@H](C)[C@@](O)(O2)C(=O)C(=O)N2CCCC[C@H]2C(=O)O[C@H]([C@H](C)C[C@@H]2CC[C@@H](OCCO)[C@H](OC)C2)CC(=O)[C@H](C)/C=C(\C)[C@@H](O)[C@@H](OC)C(=O)[C@H](C)C[C@H](C)/C=C/C=C/C=C/1C [Everolimus] + O=C(c1cc(Cc2n[nH]c(=O)c3ccccc23)ccc1F)N1CCN(C(=O)C2CC2)CC1 [Olaparib] (partner 8 µM)
Method in brief: as §1

[4] = compound: CO[C@H]1C[C@@H]2CC[C@@H](C)[C@@](O)(O2)C(=O)C(=O)N2CCCC[C@H]2C(=O)O[C@H]([C@H](C)C[C@@H]2CC[C@@H](OCCO)[C@H](OC)C2)CC(=O)[C@H](C)/C=C(\C)[C@@H](O)[C@@H](OC)C(=O)[C@H](C)C[C@H](C)/C=C/C=C/C=C/1C [Everolimus] + CC(=O)Nc1cccc(-n2c(=O)n(C3CC3)c(=O)c3c(Nc4ccc(I)cc4F)n(C)c(=O)c(C)c32)c1 [Trametinib] (partner 0.02 µM)
Method in brief: as §1

| Cell Line | relative viability ([1]; 0.01 µM) | relative viability ([1]; 0.03162 µM) | relative viability ([1]; 0.1 µM) | relative viability ([1]; 0.3162 µM) | relative viability ([1]; 1 µM) | relative viability ([2]; first compound 0.01 µM) | relative viability ([2]; first compound 0.03162 µM) | relative viability ([2]; first compound 0.1 µM) | relative viability ([2]; first compound 0.3162 µM) | relative viability ([2]; first compound 1 µM) | relative viability ([3]; first compound 0.01 µM) | relative viability ([3]; first compound 0.03162 µM) | relative viability ([3]; first compound 0.1 µM) | relative viability ([3]; first compound 0.3162 µM) | relative viability ([3]; first compound 1 µM) | relative viability ([4]; first compound 0.01 µM) | relative viability ([4]; first compound 0.03162 µM) | relative viability ([4]; first compound 0.1 µM) | relative viability ([4]; first compound 0.3162 µM) | relative viability ([4]; first compound 1 µM) |
| --- | --- | --- | --- | --- | --- | --- | --- | --- | --- | --- | --- | --- | --- | --- | --- | --- | --- | --- | --- | --- |
| 201T | 0.9 | 0.893 | 0.842 | 0.855 | 0.878 | 0.499 | 0.443 | 0.406 | 0.425 | 0.484 | 0.716 | 0.802 | 0.724 | 0.786 | 0.783 | 0.658 | 0.632 | 0.586 | 0.595 | 0.57 |
| NCI-H1915 | 0.955 | 0.863 | 0.82 | 0.875 | 0.866 | 0.384 | 0.372 | 0.34 | 0.349 | 0.432 | 0.282 | 0.31 | 0.285 | 0.26 | 0.288 | 0.233 | 0.197 | 0.204 | 0.228 | 0.191 |
| NCI-H2009 | 0.769 | 0.867 | 0.705 | 0.791 | 0.841 | 0.427 | 0.464 | 0.421 | 0.451 | 0.402 | 0.601 | 0.456 | 0.364 | 0.492 | 0.446 | 0.132 | 0.121 | 0.14 | 0.138 | 0.158 |
| BEN | 0.567 | 0.358 | 0.334 | 0.46 | 0.387 | 0.289 | 0.249 | 0.273 | 0.24 | 0.26 | 0.671 | 0.472 | 0.505 | 0.512 | 0.59 | 0.494 | 0.447 | 0.467 | 0.484 | 0.46 |
| PC-14 | 0.808 | 0.759 | 0.679 | 0.657 | 0.734 | 0.443 | 0.369 | 0.459 | 0.32 | 0.488 | 0.46 | 0.434 | 0.298 | 0.343 | 0.411 | 0.297 | 0.444 | 0.23 | 0.36 | 0.276 |
| SK-MES-1 | 0.755 | 0.75 | 0.74 | 0.663 | 0.622 | 0.55 | 0.583 | 0.574 | 0.552 | 0.545 | 0.539 | 0.468 | 0.512 | 0.537 | 0.421 | 0.38 | 0.412 | 0.372 | 0.397 | 0.277 |
| NCI-H727 | 0.67 | 0.537 | 0.518 | 0.608 | 0.552 | 0.462 | 0.457 |  | 0.485 | 0.368 | 0.719 | 0.673 | 0.569 | 0.524 | 0.755 | 0.433 | 0.385 | 0.337 | 0.363 | 0.342 |
